In patent publication US9096642B2, “Therapeutic compounds for immunomodulation” (Aurigene Discovery Technologies Limited, priority 2011, dated 2015):

Tested on: B16F10 melanoma
Experiment: B16F10 metastasis model (lung metastasis of B16F10 melanoma)
Type: in vivo, C57/b16J mice
Settings: 5 mg/kg subcutaneously once daily; after 14 days of treatment; 0.1×10^6 B16F10 cells i.v.; versus vehicle control
Description: In vivo Efficacy of Compound 1 on Metastasis of B16F10 Melanoma
C57/b16J female mice (Aurigene, Bangalore, India) aged 6 to 8 weeks were used for the experiment. Animals were acclimatized for a week in the experimental room before conducting the experiment.
Effect of Compound 001 in B16F10 Metastasis Model
In the case of metastasis model, 0.1×10^6 B16F10 cells were injected to C57/b16J mice through i.v. Compound 001 dissolved in PBS, pH 7.4 was dosed subcutaneously at 5 mg/kg once daily. Vehicle control group of mice received only saline. Each group consisted of ten animals. Body weight and clinical signs were recorded daily. After 14 days of treatment, lung metastasis was quantitated by counting number of nodules under dissection microscope.

## Compound 001: SEQ ID NO: 3 (SNTSEFS)
  reduction in metastasis (lung metastasis quantitated by counting number of nodules): 64%
